Laboratory results reported in the supplement of paper PMC4862054.
“And” between values parts separate entries of the source, which are not always exact repeats. Equal entries are not always repeated.

What was measured:
[1] = system: CAL-51; assay: normalised viability (% of control), CellTiter-Blue; higher = more viable cells (about 100 = DMSO control); conditions: incubation time: 72 h
Outline: (§1)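 Vehicle (100) and a positive kill control (0) anchored the normalisation of each plate, and Z'-factor was used for quality control. Breast cancer cell lines in 20 µl suspension were incubated 72 h over compound in 5 µl medium in 384-well plates, followed by CellTiter-Blue at 560/590 nm. The value is normalised viability at a single listed concentration of the series.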

[2] = system: MDA-MB-231; assay: as above; conditions: incubation time: 72 h
Outline: as §1

[3] = system: CAL-120; assay: as above; conditions: incubation time: 72 h
Outline: as §1

[4] = system: HDQ-P1; assay: as above; conditions: incubation time: 72 h
Outline: as §1

[5] = system: HCC1937; assay: as above; conditions: incubation time: 72 h
Outline: as §1

[6] = system: CAL-148; assay: as above; conditions: incubation time: 72 h
Outline: as §1

[7] = system: MFM-223; assay: as above; conditions: incubation time: 72 h
Outline: as §1

[8] = system: HCC1599; assay: as above; conditions: incubation time: 72 h
Outline: as §1

[9] = system: HCC1143; assay: as above; conditions: incubation time: 72 h
Outline: as §1

[10] = system: BT-549; assay: as above; conditions: incubation time: 72 h
Outline: as §1

[11] = system: BT-474; assay: as above; conditions: incubation time: 72 h
Outline: as §1

[12] = system: CAL-85-1; assay: as above; conditions: incubation time: 72 h
Outline: as §1

[13] = system: MDA-MB-468; assay: as above; conditions: incubation time: 72 h
Outline: as §1

[14] = system: DU-4475; assay: as above; conditions: incubation time: 72 h
Outline: as §1

[15] = system: MDA-MB-436; assay: as above; conditions: incubation time: 72 h
Outline: as §1

[16] = system: MDA-MB-453; assay: as above; conditions: incubation time: 72 h
Outline: as §1

[17] = system: SK-BR-3; assay: as above; conditions: incubation time: 72 h
Outline: as §1

[18] = system: CAL-51; assay: normalised viability (% of control), CellTiter-Blue; higher = more viable cells (100 = DMSO, 0 = benzethonium chloride kill control); conditions: 0.1 nM; incubation time: 72 h
Outline: as §1

[19] = system: MDA-MB-231; assay: as above; conditions: 0.1 nM; incubation time: 72 h
Outline: as §1

[20] = system: CAL-120; assay: as above; conditions: 0.1 nM; incubation time: 72 h
Outline: as §1

[21] = system: HDQ-P1; assay: as above; conditions: 0.1 nM; incubation time: 72 h
Outline: as §1

[22] = system: MFM-223; assay: as above; conditions: 0.1 nM; incubation time: 72 h
Outline: as §1

[23] = system: HCC1143; assay: as above; conditions: 0.1 nM; incubation time: 72 h
Outline: as §1

[24] = system: Hs578T; assay: as above; conditions: 0.1 nM; incubation time: 72 h
Outline: as §1

[25] = system: DU-4475; assay: as above; conditions: 0.1 nM; incubation time: 72 h
Outline: as §1

[26] = system: SK-BR-3; assay: as above; conditions: 0.1 nM; incubation time: 72 h
Outline: as §1

Cc1nc(Nc2ncc(C(=O)Nc3c(C)cccc3Cl)s2)cc(N2CCN(CCO)CC2)n1 [Dasatinib]
Conditions	normalised viability
[1], 0.3 nM	106% and 112%
[1], 3 nM	92.3% and 93.9%
[1], 10 nM	79.3% and 84.4%
[2], 1 nM	87.5% and 81.5%
[2], 100 nM	53% and 40.2%
[2], 1000 nM	40.5% and 34%
[3], 1 nM	93.5% and 85.7%
[3], 100 nM	46% and 38.3%
[3], 1000 nM	26.6% and 22.4%
[4], 0.3 nM	106% and 111%
[4], 3 nM	83.8% and 84.8%
[5], 1 nM	95.7% and 92.3%
[5], 100 nM	53.9% and 78%
[6], 0.3 nM	97.9% and 80.8%
[6], 3 nM	110% and 85.8%
[6], 10 nM	98.1% and 88.5%
[7], 1 nM	96.2% and 96.8%
[7], 100 nM	84.3% and 90.4%
[7], 1000 nM	70.1% and 72%
[8], 1 nM	109% and 107%
[8], 100 nM	103% and 114%
[8], 1000 nM	101% and 100%
[9], 1 nM	100% and 78.6%
[9], 100 nM	65.4% and 55%
[9], 1000 nM	48.9% and 37.6%
[10], 1 nM	102% and 95.4%
[10], 100 nM	62.5% and 51.1%
[10], 1000 nM	38.9% and 35.7%
[11], 1 nM	126% and 102%
[11], 100 nM	113% and 96.2%
[11], 1000 nM	97.9% and 95.4%
[12], 0.3 nM	97.8% and 95.5%
[12], 3 nM	84.2% and 87.7%
[12], 10 nM	87.9% and 92.9%
[13], 1 nM	114% and 109%
[13], 100 nM	105% and 100%
[13], 1000 nM	94.6% and 90.4%
[14], 0.3 nM	107% and 83.4%
[14], 3 nM	101% and 97.1%
[14], 10 nM	101% and 95.7%
[15], 1 nM	91.2% and 105%
[15], 100 nM	64.8% and 56.8%
[15], 1000 nM	40.4% and 30.4%
[16], 0.3 nM	121% and 115%
[16], 3 nM	96.6% and 99.2%
[16], 10 nM	97.7% and 104%
[17], 1 nM	109% and 92.9%
[17], 100 nM	112% and 98.6%

Conditions	normalised viability
[18]	105% and 114%
[19]	110% and 86.5%
[20]	104% and 85.6%
[21]	126% and 109%
[22]	99.2% and 94.2%
[23]	102% and 84.5%
[24]	107% and 97.2%
[25]	109% and 110%
[26]	98.2% and 92.7%
